Like-named read-outs stand apart in the source and are kept apart here.
How the values were obtained:
Phytophthora infestans = assay type: in vivo; conditions: tomato plants, protective spray, assessed after 6 days
Plasmopara viticola = test: Activity against peronospora of grapevines caused by Plasmopara viticola; assay type: in vivo; conditions: grapevines cultivar Riesling
Experimental: The active compounds, separately or jointly, were prepared as a stock solution comprising 0.25% by weight of active compound in acetone or DMSO. 1% by weight of the emulsifier Uniperol® EL (wetting agent having emulsifying and dispersant action based on ethoxylated alkylphenols) was added to this solution, and the mixture was diluted with water to the desired concentration.
Use example 2—Activity against peronospora of grapevines caused by Plasmopara viticola
Leaves of potted grapevines of the cultivar “Riesling” were sprayed to runoff point with an aqueous suspension having the concentration of active compounds stated below. The next day, the undersides of the leaves were inoculated with an aqueous zoospore suspension of Plasmopara viticola. The grapevines were then initially placed in a water-vapor-saturated chamber at 24° C. for 48 hours and then in a greenhouse at temperatures between 20 and 30° C. for 5 days. After this period of time, the plants were, to promote sporangiophore eruption, again placed in a humid chamber for 16 hours. The extent of the development of the infection on the undersides of the leaves was then determined visually.
Evaluation was carried out analogously to example 1.

Compound	Efficacy in % of the untreated control (Phytophthora infestans; 16 ppm in the spray liquor) [%]	Efficacy in % of the untreated control (Phytophthora infestans; 250 ppm in the spray liquor) [%]	Efficacy in % of the untreated control (Plasmopara viticola; 1 ppm in the spray liquor) [%]	Efficacy in % of the untreated control (Plasmopara viticola; 4 ppm in the spray liquor) [%]	Efficacy in % of the untreated control (Phytophthora infestans; 63 ppm in the spray liquor) [%]
CC(C)(C)C(O)(CCc1ccc(Cl)cc1)Cn1cncn1 (racemic) [II, (R,S)-1-(4-chlorophenyl)-4,4-dimethyl-3-(1H-1,2,4-triazol-1-ylmethyl)pentan-3-ol]	0	0	0	28	
CC1CCN(c2c(-c3c(F)cc(F)cc3F)c(Cl)nc3ncnn23)CC1 [I, 5-chloro-7-(4-methylpiperidin-1-yl)-6-(2,4,6-trifluorophenyl)-[1,2,4]triazolo[1,5-a]pyrimidine]			4	52	9
CC1CCN(c2c(-c3c(F)cccc3Cl)c(Cl)nc3ncnn23)CC1 [comparative A]					0
C[C@H](Nc1c(-c2c(F)cc(F)cc2F)c(Cl)nc2ncnn12)C(F)(F)F [comparative B]					9

Source: patent publication US20070117813A1 (priority 2003, published 2007)
